Data taken from BindingDB's records for doi:10.1021/acs.jmedchem.9b01392 (AstraZeneca, 2020).

Target: T1, Tyrosine-protein kinase JAK3 (Homo sapiens, UniProt P52333)
T1 sequence (P52333 whole entry): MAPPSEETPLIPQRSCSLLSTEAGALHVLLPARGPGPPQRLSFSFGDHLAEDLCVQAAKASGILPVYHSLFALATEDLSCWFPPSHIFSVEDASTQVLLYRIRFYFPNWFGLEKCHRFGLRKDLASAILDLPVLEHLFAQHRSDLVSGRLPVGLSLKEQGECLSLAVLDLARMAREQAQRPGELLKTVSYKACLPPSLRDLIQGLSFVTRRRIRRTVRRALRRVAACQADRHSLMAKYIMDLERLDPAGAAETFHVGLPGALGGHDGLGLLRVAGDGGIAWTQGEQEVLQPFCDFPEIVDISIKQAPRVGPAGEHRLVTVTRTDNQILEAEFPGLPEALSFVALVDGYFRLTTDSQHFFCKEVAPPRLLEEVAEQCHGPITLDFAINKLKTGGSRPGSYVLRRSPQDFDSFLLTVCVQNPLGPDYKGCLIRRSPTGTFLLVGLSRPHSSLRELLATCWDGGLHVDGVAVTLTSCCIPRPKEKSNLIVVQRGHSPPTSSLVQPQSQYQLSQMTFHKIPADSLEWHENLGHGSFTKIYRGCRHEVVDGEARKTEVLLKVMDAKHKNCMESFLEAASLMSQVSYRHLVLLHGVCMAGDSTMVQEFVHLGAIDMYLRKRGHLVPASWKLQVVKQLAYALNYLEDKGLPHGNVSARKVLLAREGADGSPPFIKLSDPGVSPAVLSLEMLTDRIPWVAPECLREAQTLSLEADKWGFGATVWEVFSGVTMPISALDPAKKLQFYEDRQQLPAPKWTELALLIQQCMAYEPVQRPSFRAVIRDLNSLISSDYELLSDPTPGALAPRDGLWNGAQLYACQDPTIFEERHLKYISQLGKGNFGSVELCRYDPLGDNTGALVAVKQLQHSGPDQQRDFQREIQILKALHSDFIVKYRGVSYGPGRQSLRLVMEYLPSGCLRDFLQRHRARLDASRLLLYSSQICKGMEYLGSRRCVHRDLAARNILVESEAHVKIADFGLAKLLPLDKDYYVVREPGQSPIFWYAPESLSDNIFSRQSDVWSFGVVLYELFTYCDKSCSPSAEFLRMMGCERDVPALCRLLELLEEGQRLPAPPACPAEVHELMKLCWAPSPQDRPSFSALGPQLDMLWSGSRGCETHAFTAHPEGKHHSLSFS
Experiment: Inhibition of JAK3 (unknown origin)

IC50: > 30 µM
SMILES: COc1nn(C)cc1Nc1nccc(-c2c[nH]c3c(NC(=O)[C@@H](C)N4CCN(C)CC4)cccc23)n1 [(2R)-N-(3-{2-[(3-methoxy-1-methyl-1H-pyrazol-4-yl)amino]pyrimidin-4-yl}-1H-indol-7-yl)-2-(4-methylpiperazin-1-yl)propanamide]
